Results as given in patent publication US5843940A, “Benzothiophene compounds, compositions, and method” (Eli Lilly and Company, priority 1997, dated 1998).
Counter-ions that a name gives are not always drawn.

Key:
[1] = tested on: uterus of ovariectomized rats; assay: Uterine weight in ovariectomized rats; type: in vivo, female Sprague Dawley rats; conditions: for Uterine Weight % Inc (increase versus the ovariectomized controls): daily for 4 days, 5 to 6 rats, * p < .05
From the text: (§1) Seventy-five day old female Sprague Dawley rats (weight range of 200 to 225 g) were obtained from Charles River Laboratories (Portage, Mich.). The animals were either bilaterally ovariectomized (OVX) or exposed to a Sham surgical procedure at Charles River Laboratories, and then shipped after one week. Upon arrival, they were housed in metal hanging cages in groups of 3 or 4 per cage and had ad libitum access to food (calcium content approximately 0.5%) and water for one week. Room temperature was maintained at 22.2°±1.7° C. with a minimum relative humidity of 40%. The photoperiod in the room was 12 hours light and 12 hours dark.
(§2) Dosing Regimen Tissue Collection. After a one week acclimation period (therefore, two weeks post-OVX) daily dosing with test compound was initiated. 17α-ethynyl estradiol or the test compound were given orally, unless otherwise stated, as a suspension in 1% carboxymethylcellulose or dissolved in 20% cyclodextrin. Animals were dosed daily for 4 days. Following the dosing regimen, animals were weighed and anesthetized with a ketamine:xylazine (2:1, V:V) mixture and a blood sample was collected by cardiac puncture. The animals were then sacrificed by asphyxiation with CO2, the uterus was removed through a midline incision, and a wet uterine weight was determined.
(§3) The data presented in Table 1 below reflects the response of 5 to 6 rats per treatment.

[2] = tested on: Uterine Eosinophil Peroxidase; assay: Uterine Eosinophil Peroxidase (EPO) Assay; type: in vivo, female Sprague Dawley rats; conditions: for Uterine Eosinophil (Vmax), Eosinophil peroxidase Vmax: daily for 4 days, 5 to 6 rats, * p < .05
From the text: as §1, §2
Uterine Eosinophil Peroxidase (EPO) Assay. Uteri were kept at 4° C. until time of enzymatic analysis. The uteri were then homogenized in 50 volumes of 50 mM Tris buffer (pH-8.0) containing 0.005% Triton X-100. Upon addition of 0.01% hydrogen peroxide and 10 mM O-phenylenediamine (final concentrations) in Tris buffer, increase in absorbance was monitored for one minute at 450 nm. The presence of eosonophils in the uterus is an indication of estrogenic activity of a compound. The maximal velocity of a 15 second interval was determined over the initial, linear portion of the reaction curve.
as §3

Serum cholesterol = Serum cholesterol analysis in ovariectomized rats; type: in vivo, female Sprague Dawley rats; conditions: for Serum Cholest. % Dec. (decrease versus ovariectomized controls): daily for 4 days, 5 to 6 rats, * p < .05
From the text: as §1, §2
Cholesterol Analysis. Blood samples were allowed to clot at room temperature for 2 hours, and serum was obtained following centrifugation for 10 minutes at 3000 rpm. Serum cholesterol was determined using a Boehringer Mannheim Diagnostics high performance cholesterol assay. Briefly the cholesterol was oxidized to cholest-4-en-3-one and hydrogen peroxide. The hydrogen peroxide was then reacted with phenol and 4-aminophenazone in the presence of peroxidase to produce a p-quinone imine dye, which was read spectrophotemetrically at 500 nm. Cholesterol concentration was then calculated against a standard curve.
as §3

[3] = tested on: MCF-7 breast adenocarcinoma cells; assay: MCF-7 Proliferation Assay (estrogen dependent breast cancer); type: cell-based; conditions: Homo sapiens, MCF7, versus control (DMSO), tritiated thymidine
Method: MCF-7 breast adenocarcinoma cells (ATCC HTB 22) are maintained in MEM (minimal essential medium, phenol-red free, Sigma St.Louis Mo.) supplimented with 10% fetal bovine serum (FBS) (v/v), L-glutamine (2 mM), sodium pyruvate (1 mM), HEPES (10 mM), non-essential amino acids and bovine insulin (1 ug/mL). Ten days prior to the assay, the MCF-7 cells are switched to maintenance medium supplemented with 10% dextrancoated charcoal stripped fetal bovine serum (DCC-FBS) assay medium in place of the 10% FBS to deplete internal stores of estrogen. MCF-7 cells are removed from the maintenance flasks using a cell dissociating medium (Ca/Mg free HBSS (phenol-red free) supplemented with 10 mM HEPES and 2 mM EDTA. Cells are washed twice with the assay medium and adjusted to 80,000 cells/mL. Approximately […] (8,000 cells) are added to a flat-bottomed microculture well (Costar 3596) and incubated at […] in a 5% CO2 humidified incubator for 48 hours to allow cell adherence and equilibrium after transfer. Serial dilutions of the compounds of formula I or DMSO as a diluent control are prepared in assay medium and […] to triplicate microcultures followed by […] for a final volume of […]. After an additional 48 hours of incubation, the microcultures are pulsed with tritiated thymidine ([…]) for 4 hours. Culture are terminated by freezing at -70° C. for 24 hours followed by thawing and harvesting of microcultures using a Skatron Semiautomatic Cell Harvester. Samples are counted by liquid scintillation. Fifty percent inhibitory concentration of the test drugs (IC50) are determined versus the control (DMSO).

[4] = tested on: femur density of ovariectomized rats; assay: Osteoporosis test, bone density in ovariectomized rats; type: in vivo; conditions: orally administered, 35 days, in 20% hydroxypropyl β-cyclodextrin
Method: Following the General Preparation Procedure, infra, the rats are treated daily for 35 days (6 rats per treatment group) and sacrificed by carbon dioxide asphyxiation on the 36th day. The 35 day time period is sufficient to allow maximal reduction in bone density, measured as described herein. At the time of sacrifice, the uteri are removed, dissected free of extraneous tissue, and the fluid contents are expelled before determination of wet weight in order to confirm estrogen deficiency associated with complete ovariectomy. […] The uteri are then placed in 10% neutral buffered formalin to allow for subsequent histological analysis. The right femurs are excised and digitilized x-rays generated and analyzed by an image analysis program (NIH image) at the distal metaphysis. The proximal aspect of the tibiae from these animals are also scanned by quantitative computed tomography. In accordance with the above procedures, compounds of the instant invention and ethynyl estradiol (EE2) in 20% hydroxypropyl β-cyclodextrin are orally administered to test animals. Distal femur metaphysis and proximal tibiae data are compared to intact and ovariectomized test animals. Results are reported as percent protection relative to ovariectomy.

SMILES	Uterine Weight % Inc (increase versus the ovariectomized controls) ([1]; 0.1 mg/kg PO) [%]	Uterine Weight % Inc (increase versus the ovariectomized controls) ([1]; 1.0 mg/kg PO) [%]	Uterine Weight % Inc (increase versus the ovariectomized controls) ([1]; 10.0 mg/kg PO) [%]	Uterine Eosinophil (Vmax), Eosinophil peroxidase Vmax ([2]; 0.1 mg/kg PO)	Uterine Eosinophil (Vmax), Eosinophil peroxidase Vmax ([2]; 1.0 mg/kg PO)	Uterine Eosinophil (Vmax), Eosinophil peroxidase Vmax ([2]; 10.0 mg/kg PO)	Serum Cholest. % Dec. (decrease versus ovariectomized controls) (Serum cholesterol; 0.1 mg/kg PO) [%]	Serum Cholest. % Dec. (decrease versus ovariectomized controls) (Serum cholesterol; 1.0 mg/kg PO) [%]	Serum Cholest. % Dec. (decrease versus ovariectomized controls) (Serum cholesterol; 10.0 mg/kg PO) [%]	IC50 [3] [nM]	uterine weight (in words) ([1]; EE2 orally at 0.1 mg/kg/day, versus ovariectomized test animals)	eosinophil infiltration into the uterus (in words) ([2]; stromal layer of ovariectomized rats)	serum cholesterol (in words) (Serum cholesterol; EE2 orally at 0.1 mg/kg/day)	loss of femur density after ovariectomy [4]
COc1ccc(-c2sc3cc(OC)ccc3c2-c2cccc(OCCCCN3CCCCC3)c2)cc1.Cl [Example 3, 2-(4-Methoxyphenyl)-3-[3-[4-(1-piperidinyl)butoxy]phenyl]-6-methoxybenzo[b]thiophene hydrochloride]	23.9	62.1	65.0	4.8	43.5	-91.2	35.5	64.4	78.0					
Oc1ccc(-c2sc3cc(O)ccc3c2-c2cccc(OCCN3CCCCC3)c2)cc1 [Example 4, 2-(4--Hydroxyphenyl)-3-[3-[2-(1-piperidinyl)ethoxy]phenyl]-6-hydroxybenzo[b]thiophene hydrochloride]	9.1	5.6	78.7	4.8	4.8	103.8	33.3	57.2	81.0	8				
C#C[C@]1(O)CC[C@H]2[C@@H]3CCc4cc(O)ccc4[C@H]3CC[C@@]21C [EE2, 17α-ethynyl estradiol, reference compound]	118.6			234.2			89.3				substantially greater than the uterine weight of ovariectomized test animals	substantial, expected increase in eosinophil infiltration	caused a decrease in serum cholesterol	prevents this loss
COc1ccc(-c2sc3cc(OC)ccc3c2-c2cccc(OCCN3CCCCC3)c2)cc1.Cl [Example 1, 2-(4-Methoxyphenyl)-3-[3-[2-(1-piperidinyl)ethoxy]phenyl]-6-methoxybenzo[b]thiophene hydrochloride]	24	37.2	68.2	7.5	22.2	103.5	25.8	56.1	71.1					
Oc1ccc(-c2sc3cc(O)ccc3c2-c2ccc(OCCN3CCCCC3)cc2)cc1 [Compound A, reference compound]	24.6	64.8	41.7	21.0	49.9	55.9	45.4	68.8	65.3					
Oc1ccc(-c2sc3cc(O)ccc3c2-c2cccc(OCCCN3CCCCC3)c2)cc1 [Example 5]										0.2				
Oc1ccc(-c2sc3cc(O)ccc3c2-c2cccc(OCCCCN3CCCCC3)c2)cc1 [Example 6, 2-(4--Hydroxyphenyl)-3-[3-(1-piperidinyl)butoxy]phenyl]-6-hydroxybenzo[b]thiophene hydrochloride]										2				
COc1ccc(-c2sc3cc(OC)ccc3c2-c2cccc(OCCCN3CCCCC3)c2)cc1.Cl [Example 2, 2-(4-Methoxyphenyl)-3-[3-[3-(1-piperidinyl)propoxy]phenyl]-6-methoxybenzo[b]thiophene hydrochloride]	20.2	35.7	39.1	24.0	32.4	32.1	59.1	76.5	69.4					
